Publication PMC6882468 (Journal of Enzyme Inhibition and Medicinal Chemistry, 2019)

Tests used:
p38α = tested on: p38α; set-up: method as in PMID 17664068; conditions: Figure 1; cited from earlier work
p38α MAPK = p38α MAPK (Homo sapiens, UniProt Q16539); assay: p38α MAPK inhibition assay in vitro; assay type: biochemical; conditions: triplicate, read-out: IC50 p38p
Experimental: In brief, after mixing the enzyme reagent with the sample, a reaction mixture containing 200 µM biotin-peptide substrate and 600 µM ATP (+100 µCi/mL γ-^32 P-ATP) was added to initiate the reaction. […] Part of the reaction solution was transferred to the well of a streptavidin-coated flash plate, washed in PBS containing 0.01% Tween and sealed. The average value of counts per minute for each group and the IC50 value was calculated.
The average fluorescence values of each well were calculated and recorded as RFU (Relative Fluorescence Unit) blank control (RFU blank), RFU 100% enzyme activity control (RFU enzyme), RFU positive drug control (RFU drug) and RFU test compound (RFU compound). The inhibition rate is calculated according to the following formula. Inhibition rate (%)= (RFU (enzyme) – RFU (compound/drug) […]) /(RFU (enzyme) – RFU (blank)) * 100%
The IC50 value of the test compound was calculated by the concentration-inhibition reaction curve and the assays were performed in triplicate.

COX-2 = biological target: T1, COX-2 (Homo sapiens, UniProt P35354); assay: COX-2 inhibition assay in vitro (COX Inhibitor Screening Kit, fluorometric); conditions: for SI (COX-1/COX-2): IC50 (COX-1)/IC50 (COX-2)
T1 sequence (P35354 18-604): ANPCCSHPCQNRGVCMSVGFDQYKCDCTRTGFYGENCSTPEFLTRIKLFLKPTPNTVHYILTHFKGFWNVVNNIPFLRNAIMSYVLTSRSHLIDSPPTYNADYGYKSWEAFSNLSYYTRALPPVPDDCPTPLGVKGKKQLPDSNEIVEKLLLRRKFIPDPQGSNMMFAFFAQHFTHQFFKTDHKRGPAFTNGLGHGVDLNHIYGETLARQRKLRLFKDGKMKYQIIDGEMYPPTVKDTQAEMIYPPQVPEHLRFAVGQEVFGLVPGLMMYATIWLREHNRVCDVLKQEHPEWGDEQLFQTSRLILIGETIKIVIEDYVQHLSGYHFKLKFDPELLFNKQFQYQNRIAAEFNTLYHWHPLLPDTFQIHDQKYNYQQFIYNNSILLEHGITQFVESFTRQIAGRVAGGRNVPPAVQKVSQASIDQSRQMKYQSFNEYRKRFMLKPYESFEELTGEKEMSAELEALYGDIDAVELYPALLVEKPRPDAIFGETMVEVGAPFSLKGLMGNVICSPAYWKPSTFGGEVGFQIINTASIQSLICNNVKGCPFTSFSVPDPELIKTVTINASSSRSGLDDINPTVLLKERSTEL

[1] = tested on: DNFB-induced mouse model of allergic contact dermatitis; assay: DNFB-induced mouse model of allergic contact dermatitis (ear swelling); assay type: in vivo, Male ICR mice; conditions: for Swelling degree / Inhibition (%) of ear swelling: mice, 5 mg/kg intragastric once a day for 6 days; for Swelling degree: ear slices weighed 24 h after DNFB challenge, Mean ± SD, n = 6; for Inhibition (%) of ear swelling: vs model group; for in vivo inhibitory activity, in words: p.o. 5 mg/kg, p < 0.01
Experimental: Male ICR mice (20 ± 2 g) were obtained from the Experimental Animal Centre of Anhui Medical University (Hefei, China). The mice reared in a pathogen-free setting (23 ± 2 °C, 55 ± 5% humidity) with free access to water and pelleted food throughout the experimental cycle. All experimental procedures performed in accordance with guide for the Care and Use of Laboratory Animals (National Research Council, 1996) and were approved by the Experimental Animal Ethics Committee of Anhui University of Chinese Medicine (Hefei, China). After 7 days acclimatisation, the mice were randomly divided into control group, ACD model group, dexamethasone positive control group and 20 compound groups, six in each group. The control group and the model group were given the same dose of the vehicle, the positive control group was given dexamethasone 0.5 mg/kg, and the test compound groups were given compound 5 mg/kg, all of which were given by intragastric administration and were administered once a day for 6 days. Except for the control group, the 50 µL of 1% DNFB (in acetone/olive oil 4:1) was administered to the stripped epidermis, and repeated the next day. After 6 days of drug treatment, 10 µL of 1% DNFB acetone olive oil solution was applied on both sides of the right ear to stimulate inflammation, and equivalent acetone olive oil solution was applied on the left ear for comparison. […] Calculation was carried out according to the following equations. Swelling degree (mg) = MR – ML Inhibitory rate of ear swelling (%)=((MR – ML) model – (MR – ML) treated)/(MR – ML) model ×100% MR=Average weight of the right ear slices;ML= Average weight of the left ear slices […] Dexamethasone (DEX) at a p.o. dose of 0.5 mg/kg was employed as the positive control. After the mice were sacrificed, the swelling degree and inhibition rate were calculated by weighing the same part of both ears.

COX-1 = biological target: T2, COX-1 (Ovis aries, UniProt P05979); assay: COX-1 inhibition assay in vitro (COX Inhibitor Screening Kit, fluorometric); assay type: biochemical
T2 construct: purchased BioVision, Inc
T2 sequence (P05979 25-600): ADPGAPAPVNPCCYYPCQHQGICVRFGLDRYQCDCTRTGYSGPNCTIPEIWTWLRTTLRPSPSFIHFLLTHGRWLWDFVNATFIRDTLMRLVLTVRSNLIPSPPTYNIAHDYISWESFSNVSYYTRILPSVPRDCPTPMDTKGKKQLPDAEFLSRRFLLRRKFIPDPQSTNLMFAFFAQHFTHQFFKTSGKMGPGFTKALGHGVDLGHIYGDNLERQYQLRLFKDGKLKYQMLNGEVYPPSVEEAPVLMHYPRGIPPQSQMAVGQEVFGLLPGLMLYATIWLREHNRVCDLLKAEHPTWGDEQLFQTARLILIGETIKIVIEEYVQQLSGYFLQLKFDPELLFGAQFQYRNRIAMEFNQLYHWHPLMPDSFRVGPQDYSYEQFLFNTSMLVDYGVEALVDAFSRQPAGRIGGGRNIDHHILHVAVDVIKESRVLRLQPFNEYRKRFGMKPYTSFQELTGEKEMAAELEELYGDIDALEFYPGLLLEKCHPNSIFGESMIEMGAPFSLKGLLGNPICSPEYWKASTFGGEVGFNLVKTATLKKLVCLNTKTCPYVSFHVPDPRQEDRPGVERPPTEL
Experimental: Simply, different concentrations of the test compound solution were added to the mixed solution containing COX-1/COX-2 enzyme (10 µL) and Assay Buffer (960 µL, 0.1 M Tris-HCl pH 8.0 containing 5 µM EDTA and 2 µM phenol). […] The IC50 values were calculated as described above.

Chain of p38α MAPK (Q16539 whole entry): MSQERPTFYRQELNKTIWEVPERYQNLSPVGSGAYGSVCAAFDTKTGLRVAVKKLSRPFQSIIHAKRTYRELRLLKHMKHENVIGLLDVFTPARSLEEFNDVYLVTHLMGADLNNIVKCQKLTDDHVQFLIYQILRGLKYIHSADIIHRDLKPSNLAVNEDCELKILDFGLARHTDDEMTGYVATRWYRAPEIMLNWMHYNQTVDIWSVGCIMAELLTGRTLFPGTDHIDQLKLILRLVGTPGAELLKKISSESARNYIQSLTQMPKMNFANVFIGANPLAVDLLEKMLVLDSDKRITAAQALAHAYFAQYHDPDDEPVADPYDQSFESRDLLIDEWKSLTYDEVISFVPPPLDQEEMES

Compound	IC50 (p38α)	IC50 (p38α MAPK)	IC50 (COX-2)	SI (COX-1/COX-2) (COX-2)	Swelling degree [1]	Inhibition (%) of ear swelling [1]	in vivo inhibitory activity, in words [1]	IC50 (COX-1)
COc1cc2[nH]ccc2cc1C(=O)N1CCN(Cc2ccccc2)CC1 [Compound 2]	0.95 µM	–	–	–	–	–	–	–
CC(=O)c1ccccc1C(=O)N1CCN(Cc2cccc([N+](=O)[O-])c2)CC1 [Compound 6f, 1–(2-(4–(3-Nitrobenzyl)piperazine-1-carbonyl)phenyl)ethan-1-one]	–	3.41 ± 0.22 µM	0.842 ± 0.062 µM	1.41	9.9 ± 2.9 mg	39.6%	significant inhibitory activity	1.19 ± 0.08 µM
CC(=O)c1ccccc1C(=O)N1CCN(Cc2ccc(F)cc2)CC1 [Compound 6j, 1–(2-(4–(4-Fluorobenzyl)piperazine-1-carbonyl)phenyl)ethan-1-one]	–	8.49 ± 0.57 µM	0.022 ± 0.003 µM	192.27	10.4 ± 3.1 mg	36.6%	significant inhibitory activity	4.23 ± 0.23 µM
